Paper PMC12858467, “In vitro toxicokinetics and metabolic profiling of methoxycathinones and methylthiocathinones using human liver systems and hyphenated mass spectrometry” (Archives of Toxicology, 2025)

How the values were obtained:
Type in all cases: in vitro ADME
Settings in all cases: 30 min, 37 °C
CYP3A4 = molecular target: T1, CYP3A4 (Homo sapiens, UniProt P08684); assay: Monooxygenases activity screening, CYP3A4; parameters: key: +, detected; -, not detected
T1 construct: purchased Discovery Life Sciences (Huntsville, LA, USA); host or cells: baculovirus-infected insect cells (microsomes, Supersomes)
T1 sequence (P08684 whole entry): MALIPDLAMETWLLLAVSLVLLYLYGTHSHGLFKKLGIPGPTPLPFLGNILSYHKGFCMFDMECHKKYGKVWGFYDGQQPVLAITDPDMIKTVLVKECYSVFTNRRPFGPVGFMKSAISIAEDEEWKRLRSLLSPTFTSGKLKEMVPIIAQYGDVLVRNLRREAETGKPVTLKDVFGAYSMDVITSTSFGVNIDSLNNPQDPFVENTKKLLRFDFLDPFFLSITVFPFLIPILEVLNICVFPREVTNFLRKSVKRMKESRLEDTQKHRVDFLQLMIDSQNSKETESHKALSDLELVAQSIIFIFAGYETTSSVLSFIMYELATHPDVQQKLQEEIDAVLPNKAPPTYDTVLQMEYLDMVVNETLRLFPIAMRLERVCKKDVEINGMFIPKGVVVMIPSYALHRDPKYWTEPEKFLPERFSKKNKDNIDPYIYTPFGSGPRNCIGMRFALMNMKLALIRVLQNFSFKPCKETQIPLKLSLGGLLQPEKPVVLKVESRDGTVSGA
Procedure: (§1) For incubations with CYP2A6 or CYP2C9, phosphate buffer was replaced with 90 mM Tris buffer, according to the manufacturer’s guideline. […] All incubations were done in duplicate and concentrations were fixed. Verapamil (25 µM) was incubated as a positive control.

CYP1A2 = molecular target: T2, CYP1A2 (Homo sapiens, UniProt P05177); assay: Monooxygenases activity screening, CYP1A2; parameters: key: +, detected; -, not detected
T2 construct: purchased Discovery Life Sciences (Huntsville, LA, USA); host or cells: baculovirus-infected insect cells (microsomes, Supersomes)
T2 sequence (P05177 1-516): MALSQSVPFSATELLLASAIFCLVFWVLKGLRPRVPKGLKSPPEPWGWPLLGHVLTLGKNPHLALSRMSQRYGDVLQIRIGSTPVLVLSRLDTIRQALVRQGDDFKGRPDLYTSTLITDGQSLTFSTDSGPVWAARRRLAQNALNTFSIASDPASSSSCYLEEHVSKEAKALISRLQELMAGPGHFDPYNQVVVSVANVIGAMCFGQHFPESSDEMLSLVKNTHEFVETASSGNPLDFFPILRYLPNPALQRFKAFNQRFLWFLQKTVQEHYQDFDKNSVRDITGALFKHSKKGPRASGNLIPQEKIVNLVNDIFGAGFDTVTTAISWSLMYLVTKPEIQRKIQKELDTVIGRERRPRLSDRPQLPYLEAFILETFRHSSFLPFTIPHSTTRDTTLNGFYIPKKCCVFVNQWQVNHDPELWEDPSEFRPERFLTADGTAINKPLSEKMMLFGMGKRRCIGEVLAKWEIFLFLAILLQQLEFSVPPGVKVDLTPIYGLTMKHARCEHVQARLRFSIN
Procedure: as §1

CYP2A6 = molecular target: T3, CYP2A6 (Homo sapiens, UniProt P11509); assay: Monooxygenases activity screening, CYP2A6; parameters: key: +, detected; -, not detected
T3 construct: purchased Discovery Life Sciences (Huntsville, LA, USA); host or cells: baculovirus-infected insect cells (microsomes, Supersomes)
T3 sequence (P11509 1-494): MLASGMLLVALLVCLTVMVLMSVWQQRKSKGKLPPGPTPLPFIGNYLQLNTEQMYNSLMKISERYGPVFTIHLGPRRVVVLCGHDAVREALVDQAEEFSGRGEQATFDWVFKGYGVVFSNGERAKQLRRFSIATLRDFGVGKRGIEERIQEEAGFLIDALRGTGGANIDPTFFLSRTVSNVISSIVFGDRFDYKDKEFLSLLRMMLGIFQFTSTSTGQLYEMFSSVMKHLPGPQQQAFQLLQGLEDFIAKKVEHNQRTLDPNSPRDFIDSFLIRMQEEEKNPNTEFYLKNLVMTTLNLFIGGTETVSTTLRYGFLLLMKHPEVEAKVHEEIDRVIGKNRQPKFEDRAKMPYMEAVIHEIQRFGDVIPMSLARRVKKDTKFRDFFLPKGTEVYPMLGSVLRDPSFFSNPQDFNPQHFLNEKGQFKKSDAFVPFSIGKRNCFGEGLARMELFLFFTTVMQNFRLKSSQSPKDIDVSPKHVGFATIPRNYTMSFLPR
Procedure: as §1

CYP2D6 = molecular target: T4, CYP2D6 (Homo sapiens, UniProt P10635); assay: Monooxygenases activity screening, CYP2D6; parameters: key to one-step metabolite detected in CYP2D6 incubation: +, detected; -, not detected
T4 construct: purchased Discovery Life Sciences (Huntsville, LA, USA); host or cells: baculovirus-infected insect cells (microsomes, Supersomes)
T4 sequence (P10635 whole entry): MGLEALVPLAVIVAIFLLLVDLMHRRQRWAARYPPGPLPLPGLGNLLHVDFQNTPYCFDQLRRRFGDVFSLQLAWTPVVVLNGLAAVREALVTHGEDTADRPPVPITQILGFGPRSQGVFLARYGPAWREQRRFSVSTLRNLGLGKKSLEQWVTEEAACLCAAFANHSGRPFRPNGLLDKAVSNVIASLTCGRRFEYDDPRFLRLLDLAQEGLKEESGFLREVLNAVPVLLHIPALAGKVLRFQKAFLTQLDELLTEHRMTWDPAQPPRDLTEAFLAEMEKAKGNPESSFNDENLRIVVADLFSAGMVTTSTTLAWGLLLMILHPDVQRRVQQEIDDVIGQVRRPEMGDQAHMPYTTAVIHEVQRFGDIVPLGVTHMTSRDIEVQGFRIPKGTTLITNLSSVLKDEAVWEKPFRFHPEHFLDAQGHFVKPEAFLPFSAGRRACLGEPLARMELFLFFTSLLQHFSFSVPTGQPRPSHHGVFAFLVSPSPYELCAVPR
Procedure: as §1

CYP2C8 = molecular target: T5, CYP2C8 (Homo sapiens, UniProt P10632); assay: Monooxygenases activity screening, CYP2C8; parameters: key: +, detected; -, not detected
T5 construct: purchased Discovery Life Sciences (Huntsville, LA, USA); host or cells: baculovirus-infected insect cells (microsomes, Supersomes)
T5 sequence (P10632 1-490): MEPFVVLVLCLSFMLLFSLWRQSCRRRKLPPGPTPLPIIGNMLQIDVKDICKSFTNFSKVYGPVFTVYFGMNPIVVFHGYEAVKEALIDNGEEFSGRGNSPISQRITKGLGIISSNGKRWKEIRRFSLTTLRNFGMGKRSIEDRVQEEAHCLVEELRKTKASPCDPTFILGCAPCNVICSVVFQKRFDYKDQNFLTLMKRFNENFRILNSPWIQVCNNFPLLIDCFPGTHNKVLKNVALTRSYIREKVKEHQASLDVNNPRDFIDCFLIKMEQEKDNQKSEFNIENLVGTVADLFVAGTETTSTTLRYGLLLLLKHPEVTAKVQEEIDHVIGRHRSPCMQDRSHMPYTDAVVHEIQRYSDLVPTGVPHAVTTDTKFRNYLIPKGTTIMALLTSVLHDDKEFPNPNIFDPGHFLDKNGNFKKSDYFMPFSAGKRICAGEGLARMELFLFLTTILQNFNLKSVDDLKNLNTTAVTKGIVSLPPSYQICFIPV
Procedure: as §1

CYP2C9 = molecular target: T6, CYP2C9 (Homo sapiens, UniProt P11712); assay: Monooxygenases activity screening, CYP2C9; parameters: key: +, detected; -, not detected
T6 construct: purchased Discovery Life Sciences (Huntsville, LA, USA); host or cells: baculovirus-infected insect cells (microsomes, Supersomes)
T6 sequence (P11712 whole entry): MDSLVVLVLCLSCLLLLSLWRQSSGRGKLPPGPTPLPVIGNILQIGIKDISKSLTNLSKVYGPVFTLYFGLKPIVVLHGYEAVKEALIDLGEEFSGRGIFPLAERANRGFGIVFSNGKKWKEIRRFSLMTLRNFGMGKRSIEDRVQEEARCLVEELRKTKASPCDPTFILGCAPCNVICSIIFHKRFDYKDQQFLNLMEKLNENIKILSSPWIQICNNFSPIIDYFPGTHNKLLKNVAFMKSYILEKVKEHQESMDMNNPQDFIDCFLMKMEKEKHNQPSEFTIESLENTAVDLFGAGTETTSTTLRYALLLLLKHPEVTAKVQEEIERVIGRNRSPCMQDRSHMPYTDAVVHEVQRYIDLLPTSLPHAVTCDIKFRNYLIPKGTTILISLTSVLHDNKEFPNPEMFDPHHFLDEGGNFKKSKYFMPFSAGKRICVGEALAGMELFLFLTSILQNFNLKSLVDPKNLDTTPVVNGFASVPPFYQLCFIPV
Procedure: as §1

CYP3A5 = molecular target: T7, CYP3A5 (Homo sapiens, UniProt P20815); assay: Monooxygenases activity screening, CYP3A5; parameters: key: +, detected; -, not detected
T7 construct: purchased Discovery Life Sciences (Huntsville, LA, USA); host or cells: baculovirus-infected insect cells (microsomes, Supersomes)
T7 sequence (P20815 whole entry): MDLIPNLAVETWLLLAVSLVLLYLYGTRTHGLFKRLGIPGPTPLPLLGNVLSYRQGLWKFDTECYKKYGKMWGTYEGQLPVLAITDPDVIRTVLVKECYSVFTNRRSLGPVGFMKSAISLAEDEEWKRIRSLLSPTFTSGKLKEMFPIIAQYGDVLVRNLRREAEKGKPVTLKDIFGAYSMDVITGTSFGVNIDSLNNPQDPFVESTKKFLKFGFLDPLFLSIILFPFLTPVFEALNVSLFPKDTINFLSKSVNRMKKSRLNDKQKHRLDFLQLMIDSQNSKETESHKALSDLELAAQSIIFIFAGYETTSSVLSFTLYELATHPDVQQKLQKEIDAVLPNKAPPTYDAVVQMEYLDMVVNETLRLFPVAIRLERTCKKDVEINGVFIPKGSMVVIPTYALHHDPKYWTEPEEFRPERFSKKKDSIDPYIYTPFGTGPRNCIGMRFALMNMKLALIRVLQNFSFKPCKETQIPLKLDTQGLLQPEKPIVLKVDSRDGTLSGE
Procedure: as §1

CYP2E1 = molecular target: T8, CYP2E1 (Homo sapiens, UniProt P05181); assay: Monooxygenases activity screening, CYP2E1; parameters: key: +, detected; -, not detected
T8 construct: purchased Discovery Life Sciences (Huntsville, LA, USA); host or cells: baculovirus-infected insect cells (microsomes, Supersomes)
T8 sequence (P05181 whole entry): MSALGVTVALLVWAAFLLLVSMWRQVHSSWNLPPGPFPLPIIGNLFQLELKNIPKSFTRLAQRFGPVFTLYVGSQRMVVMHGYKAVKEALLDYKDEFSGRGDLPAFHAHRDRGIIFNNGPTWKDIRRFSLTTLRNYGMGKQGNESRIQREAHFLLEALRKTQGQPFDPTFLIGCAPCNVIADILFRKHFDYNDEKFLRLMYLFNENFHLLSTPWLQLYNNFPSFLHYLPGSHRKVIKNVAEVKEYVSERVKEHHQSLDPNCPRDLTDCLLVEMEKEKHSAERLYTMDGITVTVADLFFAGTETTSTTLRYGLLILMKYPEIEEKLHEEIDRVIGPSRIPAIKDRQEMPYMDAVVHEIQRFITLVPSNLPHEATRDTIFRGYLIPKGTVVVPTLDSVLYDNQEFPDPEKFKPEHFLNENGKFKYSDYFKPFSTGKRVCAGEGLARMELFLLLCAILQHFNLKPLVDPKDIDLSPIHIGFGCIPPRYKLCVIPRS
Procedure: as §1

CYP2C19 = molecular target: T9, CYP2C19 (Homo sapiens, UniProt P33261); assay: Monooxygenases activity screening, CYP2C19; parameters: key: +, detected; -, not detected
T9 construct: purchased Discovery Life Sciences (Huntsville, LA, USA); host or cells: baculovirus-infected insect cells (microsomes, Supersomes)
T9 sequence (P33261 whole entry): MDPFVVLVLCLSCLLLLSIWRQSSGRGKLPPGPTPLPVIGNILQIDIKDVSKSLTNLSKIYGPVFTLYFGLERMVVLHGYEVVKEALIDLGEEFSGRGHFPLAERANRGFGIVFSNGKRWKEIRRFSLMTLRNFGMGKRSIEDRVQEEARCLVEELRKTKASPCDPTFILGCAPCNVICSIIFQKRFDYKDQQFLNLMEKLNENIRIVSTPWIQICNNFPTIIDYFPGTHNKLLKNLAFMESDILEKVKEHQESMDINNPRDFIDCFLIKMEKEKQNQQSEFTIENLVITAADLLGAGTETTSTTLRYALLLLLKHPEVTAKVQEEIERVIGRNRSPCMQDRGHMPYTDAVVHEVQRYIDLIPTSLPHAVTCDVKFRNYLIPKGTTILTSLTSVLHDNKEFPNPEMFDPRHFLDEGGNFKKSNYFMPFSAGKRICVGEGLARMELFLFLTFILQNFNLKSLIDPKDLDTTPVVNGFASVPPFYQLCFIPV
Procedure: as §1

[1] = molecular target: T10, flavin-containing monooxygenase 3 (FMO3) (Homo sapiens, UniProt P31513); assay: Monooxygenases activity screening, FMO3; parameters: key: +, detected; -, not detected
T10 construct: purchased Discovery Life Sciences (Huntsville, LA, USA); host or cells: baculovirus-infected insect cells (microsomes, Supersomes)
T10 sequence (P31513 1-532): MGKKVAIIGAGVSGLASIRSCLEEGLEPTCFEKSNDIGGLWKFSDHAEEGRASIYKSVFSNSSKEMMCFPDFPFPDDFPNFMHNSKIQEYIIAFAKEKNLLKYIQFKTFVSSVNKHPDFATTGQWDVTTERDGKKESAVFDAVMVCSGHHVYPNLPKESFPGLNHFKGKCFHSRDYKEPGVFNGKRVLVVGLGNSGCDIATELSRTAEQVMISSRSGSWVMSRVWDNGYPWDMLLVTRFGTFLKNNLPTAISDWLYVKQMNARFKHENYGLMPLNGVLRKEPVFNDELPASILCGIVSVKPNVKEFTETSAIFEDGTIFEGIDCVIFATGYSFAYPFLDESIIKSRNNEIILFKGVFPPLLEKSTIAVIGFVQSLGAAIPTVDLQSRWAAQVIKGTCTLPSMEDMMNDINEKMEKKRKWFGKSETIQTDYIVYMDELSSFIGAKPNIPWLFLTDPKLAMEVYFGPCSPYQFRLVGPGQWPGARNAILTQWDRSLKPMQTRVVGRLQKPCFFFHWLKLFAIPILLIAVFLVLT
Procedure: as §1

CYP2B6 = molecular target: T11, CYP2B6 (Homo sapiens, UniProt P20813); assay: Monooxygenases activity screening, CYP2B6; parameters: key: +, detected; -, not detected
T11 construct: purchased Discovery Life Sciences (Huntsville, LA, USA); host or cells: baculovirus-infected insect cells (microsomes, Supersomes)
T11 sequence (P20813 1-491): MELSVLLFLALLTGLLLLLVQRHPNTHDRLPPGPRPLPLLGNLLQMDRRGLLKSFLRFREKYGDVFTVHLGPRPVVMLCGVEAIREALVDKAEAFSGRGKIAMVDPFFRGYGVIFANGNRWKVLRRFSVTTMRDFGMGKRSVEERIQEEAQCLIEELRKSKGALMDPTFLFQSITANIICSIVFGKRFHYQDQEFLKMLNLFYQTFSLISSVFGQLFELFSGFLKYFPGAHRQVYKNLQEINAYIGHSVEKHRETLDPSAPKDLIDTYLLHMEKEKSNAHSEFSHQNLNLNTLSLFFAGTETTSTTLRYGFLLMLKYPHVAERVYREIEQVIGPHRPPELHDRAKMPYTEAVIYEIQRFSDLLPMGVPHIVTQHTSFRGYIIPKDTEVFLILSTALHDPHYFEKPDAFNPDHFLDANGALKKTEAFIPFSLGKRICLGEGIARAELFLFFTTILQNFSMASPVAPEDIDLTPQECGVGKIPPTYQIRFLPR
Procedure: as §1

[2] = substrate 4MeS-NE-BP 25 µM, Table S3.4
[3] = substrate 4MeS-αP-BP 25 µM, Table S3.5
[4] = substrate 4MeS-αMor-PrP 25 µM, Table S3.6

Structure (SMILES)	one-step metabolite detected in CYP3A4 incubation (CYP3A4; [2])	one-step metabolite detected in CYP1A2 incubation (CYP1A2; [2])	one-step metabolite detected in CYP2A6 incubation (CYP2A6; [2])	one-step metabolite detected in CYP2D6 incubation (CYP2D6; [2])	one-step metabolite detected in CYP2C8 incubation (CYP2C8; [2])	one-step metabolite detected in CYP2C9 incubation (CYP2C9; [2])	one-step metabolite detected in CYP3A5 incubation (CYP3A5; [2])	one-step metabolite detected in CYP2E1 incubation (CYP2E1; [2])	one-step metabolite detected in CYP2C19 incubation (CYP2C19; [2])	one-step metabolite detected in FMO3 incubation [1, 2]	one-step metabolite detected in CYP2B6 incubation (CYP2B6; [2])	one-step metabolite detected in CYP3A4 incubation (CYP3A4; [4])	one-step metabolite detected in CYP1A2 incubation (CYP1A2; [4])	one-step metabolite detected in CYP2A6 incubation (CYP2A6; [4])	one-step metabolite detected in CYP2D6 incubation (CYP2D6; [4])	one-step metabolite detected in CYP2C8 incubation (CYP2C8; [4])	one-step metabolite detected in CYP2C9 incubation (CYP2C9; [4])	one-step metabolite detected in CYP3A5 incubation (CYP3A5; [4])	one-step metabolite detected in CYP2E1 incubation (CYP2E1; [4])	one-step metabolite detected in CYP2C19 incubation (CYP2C19; [4])	further results
CCNC(CC)C(=O)c1ccc(S)cc1 (stereo not shown) [MT1.1]	-	-	-	+	-	-	-	-	-	-	-										
CCC(N)C(=O)c1ccc(SC)cc1 (stereo not shown) [MT1.3]	+	+	-	+	+	-	+	-	+	-	+										
CCC(C(=O)c1ccc(S)cc1)N1CCCC1 (stereo not shown) [MT2.1]																					one-step metabolite detected in CYP3A4 incubation (CYP3A4; [3]): -; one-step metabolite detected in CYP1A2 incubation (CYP1A2; [3]): -; one-step metabolite detected in CYP2A6 incubation (CYP2A6; [3]): -; one-step metabolite detected in CYP2D6 incubation (CYP2D6; [3]): +; one-step metabolite detected in CYP2C8 incubation (CYP2C8; [3]): -; one-step metabolite detected in CYP2C9 incubation (CYP2C9; [3]): -; one-step metabolite detected in CYP3A5 incubation (CYP3A5; [3]): -; one-step metabolite detected in CYP2E1 incubation (CYP2E1; [3]): -; one-step metabolite detected in CYP2C19 incubation (CYP2C19; [3]): -; one-step metabolite detected in FMO3 incubation [1, 3]: -; one-step metabolite detected in CYP2B6 incubation (CYP2B6; [3]): -
CC(C(=O)c1ccc(S)cc1)N1CCOCC1 (stereo not shown) [MT3.1]												+	+	-	+	+	-	+	-	+	one-step metabolite detected in FMO3 incubation [1, 4]: -; one-step metabolite detected in CYP2B6 incubation (CYP2B6; [4]): +
CSc1ccc(C(=O)C(C)[N+]2([O-])CCOCC2)cc1 (stereo not shown) [MT3.3]												-	-	+	-	-	-	-	-	-	one-step metabolite detected in FMO3 incubation [1, 4]: +; one-step metabolite detected in CYP2B6 incubation (CYP2B6; [4]): -
